As usually defined, the melting point is the temperature of the solid-liquid transition.

Series [1] relates to HepG2 cells. Description: Measurement of triglyceride (Amplex red fluorescence). It counts as cell-based. The conditions noted are these: Homo sapiens, 100 uM, 24 h treatment, lower is better, read-out: triglyceride synthesis ability, % control. How it is done: (§1) Metformin that is widely used in type 2 diabetic patients inhibits the formation of glucose, the synthesis of cholesterol and triglyceride in liver cells and promote the absorption of glucose from blood vessels in the muscle cells. […] In the case of the ability to form cholesterol, triglyceride and glucose, the lower the numerical value, the better the effect. Numerical values for a control group become reference values.
(§2) As a hepatic cell model, HepG2 cells were cultured in 1% serum-containing media for 24 hours, and then treated with each of the compounds for 24 hours. Then, the cells were disrupted with lysis buffer (0.1M potassium phosphate, pH 7.4, 0.05 M NaCl, 5 mM cholic acid, 0.1% Triton X-100). To the disrupted cells, the same volume of a reaction solution (0.76 U/ml glycerol kinase, 151333 U/ml peroxidase, 22.2 U/ml glycerol oxidizing agent, and 300 μM Amplex red as a fluorescent factor) was added and allowed to react at 37° C. for 30 minutes. After completion of the reaction, the cells were measured with a fluorometer at a wavelength of 560/590 nm (ex/em), thus quantifying the amount of triglyceride formed in the cells. A lower measurement value means an increased lipid production inhibitory ability.

The test system of series [2] is C2C12 cells. Description: Measurement of glucose absorption (3H-deoxy-glucose). It counts as cell-based. The following applies: for activity at 100 µM / activity at 200 µM: Mus musculus, differentiated C2C12 muscle cells, with 1 μM insulin 24 h, higher is better, read-out: glucose absorption, % control.
From the text: as §1
As a muscle cell model, C2C12 cells were induced to differentiate into muscle cells in 2% bovine fetal serum for 6 days. The C2C12 cells which differentiated into muscle cells were treated with each of the compounds in serum-free low glucose media, and then cultured with 1 μM of insulin for 24 hours. After cultivation, the cells were treated with 1 μCi 3H-deoxy-glucose and 10 μM deoxy-glucose at 37° C. for 15 minutes. After treatment, the media were removed, and the cells were washed twice with PBS. The washed cells were treated with 0.1 N NaOH and neutralized with 1N HCl. The amount of glucose absorbed into the cells was measured with a liquid scintillation counter. The effect of the compounds was determined by selecting a compound showing an absorption effect of at least 200%, dividing the absorption effect by the average percent of the control group, and then multiplying the divided value by […]. A higher measurement value means a stronger ability to reduce insulin resistance.

Series [3] deals with HepG2 cells. Description: Measurement of gluconeogenesis (14C-lactate). It counts as cell-based. The following applies: Homo sapiens, 24 h treatment, lower is better, read-out: gluconeogenesis (glucose synthesis ability), % control. How it is done: as §1
As a hepatic cell model, HepG2 cells were cultured in 10% serum-containing high glucose media, and then treated with each of the compounds for 24 hours. Then, the cells were treated with 0.5 uCi 14C-lactate and 10 mM L-lactate, and cultured for 4 hours. After cultivation, the media of the cells were removed, and the cells were washed with PBS, treated with 0.1N NaOH and left to stand at room temperature for 1 hour. Then, the cells were neutralized with 1N HCl, and the amount of glucose formed in the cells was measured with a liquid scintillation counter. […] A lower measurement value means a stronger blood glucose lowering activity.

The subject of series [4] is HepG2 cells. Description: Measurement of cholesterol synthesis ability (Amplex red fluorescence). It counts as cell-based. The following applies: for activity at 100 µM: Homo sapiens, HepG2 cells, 24 h treatment, lower is better, read-out: cholesterol synthesis ability, % control.
From the text: as §1
as §2, with “model, HepG2 cells were used to measure cholesterol synthesis inhibitory ability, which is the important function of AMPK. The hepatic cell model” for “model,”, “(0.1 M” for “(0.1M”, “(2” for “(0.76”, “cholesterol oxidizing agent, 2” for “glycerol kinase, 151333”, “0.2” for “22.2”, “cholesterol esterase,” for “glycerol oxidizing agent,”

Take `CCCCCCNc1nc(N)nc(N(C)C)n1` [Example 29, N2-hexyl-N4,N4-dimethyl-1,3,5-triazine-2,4,6-triamine]: the melting point was in the range of 142 to 149 °C. Moreover, the activity at 100 µM in series [1] came out at 41.2%. Further, the activity at 100 µM in series [2] amounted to 94.5%. Moreover, the activity at 100 µM in series [3] amounted to 16.3%. Further, the activity at 100 µM in series [4] is 63.5%.
In the same order, the values of `Cc1cccc(Nc2nc(N)nc(N(C)C)n2)c1` [Example 32, N2,N2-dimethyl-N4-m-tolyl-1,3,5-triazine-2,4,6-triamine] are 166 to 168 °C, 66.6%, 118%, 66.8% and 34.2%.
In turn, `CN(C)c1nc(N)nc(Nc2ccc3c(c2)-c2ccccc2C3)n1` [Example 25, N2-(9H-fluoren-3-yl)-N4,N4-dimethyl-1,3,5-triazine-2,4,6-triamine] gave a melting point of 282 to 290 °C. In series [1], the activity at 100 µM came to 30.2%. For the same molecule, in series [2], the activity at 100 µM is 107%. Moreover, the activity at 100 µM in series [3] was 49.5%. Besides, the activity at 100 µM in series [4] turned out to be 76.8%. Moreover, the “effect on cholesterol synthesis, times better than the control group” value in series [4] (by comparison of used amounts vs control group (metformin 2 mM)) is reported as “at least 20 times”.
With `Cc1ccccc1Nc1nc(N)nc(N(C)C)n1` [Example 33, N2,N2-dimethyl-N4-o-tolyl-1,3,5-triazine-2,4,6-triamine], the melting point fell in the range of 122 to 143 °C. Further, the activity at 100 µM in series [1] is 91.9%. Also, in series [2], the activity at 100 µM is 148%. Also, in series [3], the activity at 100 µM stood at 95.6%. For the same molecule, the activity at 100 µM in series [4] is 65.8%.
In the same order, the values of `CN(C)c1nc(N)nc(N2CCN(c3ccccc3)CC2)n1` [Example 39, N2,N2-dimethyl-6-(4-phenylpiperazin-1-yl)-1,3,5-triazine-2,4-diamine] are 132 to 139 °C, 95.3%, 115%, 77.4% and 55.8%.
`CN(C)c1nc(N)nc(Nc2ccc(-c3ccccc3)cc2)n1` [Example 37, N2-(biphenyl-4-yl)-N4,N4-dimethyl-1,3,5-triazine-2,4,6-triamine] returned a melting point of 190 to 201 °C. Besides, the activity at 100 µM in series [1] is 80.6%. Also, in series [2], the activity at 100 µM came to 151%. The activity at 100 µM in series [3] is 85.7%. Besides, in series [4], the activity at 100 µM was 66.8%.
In turn, `CN(C)c1nc(N)nc(NCc2ccoc2)n1` [Example 12, N2-(furan-3-ylmethyl)-N4,N4-dimethyl-1,3,5-triazine-2,4,6-triamine] gave a melting point of 151.6 to 152 °C. Further, the activity at 100 µM in series [1] was found to be 87.7%. Besides, the activity at 200 µM in series [2] came to 180%. For the same molecule, in series [3], the activity at 200 µM was determined as 78.6%. For the same molecule, in series [4], the activity at 100 µM was determined as 92.4%.
As for `CN(C)c1nc(N)nc(NCCN2CCCCC2)n1` [Example 7, N2,N2-dimethyl-N4-(2-(piperidin-1-yl)ethyl)-1,3,5-triazine-2,4,6-triamine], the melting point was in the range of 116.6 to 117.2 °C. Also, the activity at 100 µM in series [1] was found to be 95.8%. Moreover, the activity at 200 µM in series [2] was found to be 131%. Besides, the activity at 200 µM in series [3] worked out at 101%. In addition, the activity at 100 µM in series [4] was found to be 97.4%.
In turn, `CN(C)c1nc(N)nc(Nc2ccc(Br)cc2)n1` [Example 18, N2-(4-bromophenyl)-N4,N4-dimethyl-1,3,5-triazine-2,4,6-triamine] returned a melting point of 105 to 108 °C. The activity at 100 µM in series [1] turned out to be 44.6%. The activity at 100 µM in series [2] came to 91.5%. In addition, the activity at 100 µM in series [3] is 67%. Moreover, in series [4], the activity at 100 µM is 66.4%.
In the same order, the values of `COc1cc(Nc2nc(N)nc(N(C)C)n2)cc(OC)c1` [Example 16, N2-(3,5-dimethoxyphenyl)-N4,N4-dimethyl-1,3,5-triazine-2,4,6-triamine] are 148 to 150 °C, 79.5%, 63.2%, 87.6% and 66.9%.
For the molecule `CN(C)c1nc(N)nc(N2CCN(c3ccc([N+](=O)[O-])cc3)CC2)n1` [Example 40, N2,N2-dimethyl-6-(4-(4-nitrophenyl)piperazin-1-yl)-1,3,5-triazine-2,4-diamine], the melting point lay within 173 to 182 °C. In addition, the activity at 100 µM in series [1] was 110%. Also, the activity at 100 µM in series [2] is 245%. Besides, the “effect of reducing insulin resistance, times better than the control group” value in series [2] (absorption effect divided by average percent of control group (metformin 2 mM), multiplied by 20) is listed as “about 14 times”. Further, in series [3], the activity at 100 µM came out at 39.8%. Also, in series [4], the activity at 100 µM is 62.2%.
Consider `Cc1ccc(CNc2nc(N)nc(N(C)C)n2)cc1` [Example 14, N2,N2-dimethyl-N4-(4-methylbenzyl)-1,3,5-triazine-2,4,6-triamine], for which the melting point was 139 to 143 °C. The activity at 100 µM in series [1] is 92%. For the same molecule, in series [2], the activity at 100 µM is 113%. Further, the activity at 100 µM in series [3] was found to be 75.4%. Also, the activity at 100 µM in series [4] came to 87.8%.
Consider `CN(C)c1nc(N)nc(Nc2cc(Cl)cc(Cl)c2)n1` [Example 24, N2-(3,5-dichlorophenyl)-N4,N4-dimethyl-1,3,5-triazine-2,4,6-triamine], for which the melting point lay within 240 to 264 °C. The activity at 100 µM in series [1] turned out to be 41.7%. Moreover, the activity at 100 µM in series [2] was 136%. The activity at 100 µM in series [3] worked out at 49.9%. The activity at 100 µM in series [4] was found to be 55.8%.
Turning to `CN(C)c1nc(N)nc(N(C)C)n1` [Example 10, N2,N2,N4,N4-tetramethyl-1,3,5-triazine-2,4,6-triamine], the melting point fell in the range of 227 to 228 °C. The activity at 100 µM in series [1] amounted to 97%. Also, the activity at 200 µM in series [2] was determined as 102%. Also, the activity at 200 µM in series [3] came out at 87.2%. For the same molecule, in series [4], the activity at 100 µM amounted to 98.9%.
With `CN(C)c1nc(N)nc(Nc2ccccc2O)n1` [Example 43, 2-(4-amino-6-(dimethylamino)-1,3,5-triazine-2-ylamino)phenol], the melting point is 307 to 312 °C. Besides, the activity at 100 µM in series [1] was 77%. The activity at 100 µM in series [2] stood at 186%. The activity at 100 µM in series [3] was 83.5%. For the same molecule, the activity at 100 µM in series [4] was 41.1%.
Turning to `CN(C)c1nc(N)nc(N)n1` [Example 11, N2,N2-dimethyl-1,3,5-triazine-2,4,6-triamine], the melting point lay within 271.8 to 272.8 °C. Also, the activity at 100 µM in series [1] was determined as 97.6%. Further, the activity at 200 µM in series [2] stood at 106%. In series [3], the activity at 200 µM was 70.4%. Moreover, the activity at 100 µM in series [4] was 97.7%.
Molecule `CN(C)c1nc(N)nc(Nc2ccc3c(c2)CCC3)n1` [Example 23, N2-(2,3-dihydro-1H-inden-5-yl)-N4,N4-dimethyl-1,3,5-triazine-2,4,6-triamine] had a melting point of 245 to 255 °C. Moreover, in series [1], the activity at 100 µM was 37.2%. The activity at 100 µM in series [2] is 1.91%. In addition, the activity at 100 µM in series [3] came out at 10.7%. Further, the activity at 100 µM in series [4] was found to be 63%.

(Values after patent US8722674B2, “1,3,5-triazine-2,4,6-triamine compound or pharmaceutical acceptable salt thereof, and pharmaceutical composition comprising the same” (Hanall Biopharma Co., Ltd., priority 2007, dated 2014).)
